Structures are written as SMILES.

The nature of series [1]: Comparative intrinsic dissolution. Format: physicochemical. The settings on record: 0.01M pH 6.8 phosphate buffer containing 0.25% w/v SDS, 37° C., 50 rpm. The text has this:
The following data illustrates the dissolution of the crystalline form of dolutegravir sodium disclosed in WO2010068253 (i.e. not the hydrate), compared to crystalline Form 1A of the present invention (i.e. crystalline Form 1A of dolutegravir sodium).
Dissolution medium: 0.01M pH 6.8 phosphate buffer containing 0.25% w/v sodium dodecyl sulfate (SDS)
FIG. 5 is a graphical comparison of the intrinsic dissolution of the solid crystalline Form 1A of dolutegravir sodium of the present invention and the crystalline form of dolutegravir sodium disclosed in WO2010068253. The solid line represents the dissolution of solid crystalline Form 1A of dolutegravir sodium of the present invention, with the dotted line representing the dissolution of the crystalline form of dolutegravir sodium disclosed in WO2010068253.

Series [2] is described as follows: Bulk density and tapped density (USP <616> method I). Type of series: physicochemical. The text has this:
Suitable methods for determining the bulk density and tapped density of the crystalline form 1A of dolutegravir sodium of the present invention and the crystalline form of dolutegravir sodium form disclosed in WO2010068253 will be well known to the skilled chemist. For example, USP <616> method I may be used.

As for `C[C@@H]1CCO[C@H]2Cn3cc(C(=O)NCc4ccc(F)cc4F)c(=O)c([O-])c3C(=O)N12.[Na+]` [Form 1A, sodium (4R,12aS)-9-{[(2,4,-difluorophenyl)methyl]carbamoyl}-4-methyl-6,8-dioxo-3,4,6,8,12,12a-hexahydro-2H-pyrido[1′,2′:4,5]pyrazino[2,1-b][1,3]oxazin-7-olate], the “% Release” value in series [1] (5 minutes) was found to be 26%; in series [1] (15 minutes), 45%; in series [1] (30 minutes), 73%; in series [1] (60 minutes), 66%; in series [1] (120 minutes), 79%; in series [1] (240 minutes), 82%. The “% Release” value in series [1] (360 minutes) is recorded as 81%; in series [1] (480 minutes), 85%; in series [1] (600 minutes), 86%; in series [1] (720 minutes) it was 82%. The compound further came in with a tapped density in series [2] of 0.7 to 0.8 g/mL.
Take `C[C@@H]1CCO[C@H]2Cn3cc(C(=O)NCc4ccc(F)cc4F)c(=O)c([O-])c3C(=O)N12.[Na+]` [crystalline form of dolutegravir sodium disclosed in WO20100] [sodium (4R,12aS)-9-{[(2,4,-difluorophenyl)methyl]carbamoyl}-4-methyl-6,8-dioxo-3,4,6,8,12,12a-hexahydro-2H-pyrido[1′,2′:4,5]pyrazino[2,1-b][1,3]oxazin-7-olate]: the “% Release” value was found to be 5% in series [1] (5 minutes); 13% in series [1] (15 minutes); 20% in series [1] (30 minutes); 56% in series [1] (60 minutes); 68% in series [1] (120 minutes); 74% in series [1] (240 minutes). The “% Release” value in series [1] (360 minutes) came out at 72%; in series [1] (480 minutes) it was 73%; in series [1] (600 minutes) it was 73%; in series [1] (720 minutes), 74%. Besides, in series [2], the bulk density lay within 0.2 to 0.3 g/mL.

For the origin of these results see patent US20210040116A1, “New Polymorphs of Dolutegravir Sodium” (CIPLA LIMITED, priority 2017, published 2021).
